Literature values in US20170240913A1, “Methods and Materials for Producing Coreless Fruit” (The New Zealand Institute for Plant and Food Research …, priority 2014, published 2017).

Tested on: frost-damaged Bramley's Seedling
Conditions: frost-damaged Bramley's Seedling (triploid, partially self-fertile)

| Structure (SMILES) | parthenocarpy |
| --- | --- |
| C=C1C[C@]23C[C@@]1(O)CC[C@H]2[C@@]12C=C[C@H](O)[C@@](C)(C(=O)O1)[C@H]2[C@@H]3C(=O)O [GA3] | not effective |
| c1ccc(CNc2ncnc3c2ncn3C2CCCCO2)cc1 (centres unmarked) [SD8339] | no additional benefits |
